Reference: PubChem BioAssay AID330 (DTP/NCI, 2004)
Values joined by “and” are separate entries in the source; they are usually repeats but may differ in a detail not shown here. Equal entries are not always repeated. Toxic doses and inconclusive results are not listed. How the source made its calls: active means survival T/C of 150% or more; inactive means T/C below 125% in these data.

Tested on: P388 leukemia ip, CD2F1 mice, survival T/C
Assay: NCI In Vivo Anticancer Drug Screen. Data for tumor model P388 Leukemia (intraperitoneal) in CD2F1 (CDF1) mice
Conditions: endpoint: median survival time, higher = longer survival
How it was run: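 Mice carrying the transplanted tumor received test compound or vehicle. Survival was recorded in each group, and the value is the treated-group measurement divided by that of the vehicle-treated control group.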

[1] = dose: 60.0 mg/kg/injection, schedule: Q01DX005 (ip), vehicle: saline with Tween-80
[2] = dose: 120.0 mg/kg/injection, schedule: Q01DX005 (ip), vehicle: saline with Tween-80

Measured: T/C

CSC(=S)/N=c1\ccc(C)cn1C
inactive: dose: 12.5 mg/kg/injection, schedule: Q04DX002 (ip), vehicle: saline with Tween-80 100 % of control | dose: 25.0 mg/kg/injection, schedule: Q04DX002 (ip), vehicle: saline with Tween-80 100 % of control | dose: 50.0 mg/kg/injection, schedule: Q04DX002 (ip), vehicle: saline with Tween-80 99 % of control

CC(CNc1nc(Nc2ccc(Cl)c(Cl)c2)nc(C(Cl)(Cl)Cl)n1)N(C)C (stereo not given)
inactive: dose: 3.13 mg/kg/injection, schedule: Q01DX009 (ip), vehicle: distilled water + Tween-80 109 % of control | dose: 3.13 mg/kg/injection, schedule: Q01DX009 (ip), vehicle: water 90 % of control | dose: 6.25 mg/kg/injection, schedule: Q01DX009 (ip), vehicle: distilled water + Tween-80 118 % of control | dose: 6.25 mg/kg/injection, schedule: Q01DX009 (ip), vehicle: water 99 % of control | dose: 12.5 mg/kg/injection, schedule: Q01DX009 (ip), vehicle: distilled water + Tween-80 98 % of control and 120 % of control | dose: 12.5 mg/kg/injection, schedule: Q01DX009 (ip), vehicle: water 99 % of control | dose: 25.0 mg/kg/injection, schedule: Q01DX009 (ip), vehicle: distilled water + Tween-80 113 % of control and 94 % of control | dose: 25.0 mg/kg/injection, schedule: Q01DX009 (ip), vehicle: water 101 % of control | dose: 50.0 mg/kg/injection, schedule: Q01DX009 (ip), vehicle: distilled water + Tween-80 109 % of control and 94 % of control | dose: 50.0 mg/kg/injection, schedule: Q01DX009 (ip), vehicle: water 101 % of control

C(=N/c1ccccn1)/c1ccc2c(c1)OCO2
inactive: dose: 50.0 mg/kg/injection, schedule: Q01DX009 (ip), vehicle: Klucel (hydroxypropylcellulose) (HPC) 100 % of control | dose: 100.0 mg/kg/injection, schedule: Q01DX009 (ip), vehicle: Klucel (hydroxypropylcellulose) (HPC) 105 % of control | dose: 200.0 mg/kg/injection, schedule: Q01DX009 (ip), vehicle: Klucel (hydroxypropylcellulose) (HPC) 101 % of control

COc1ccc(C(C)c2cc3c(cc2OCCO)OCO3)cc1O (stereo not given)
inactive: dose: 50.0 mg/kg/injection, schedule: Q01DX005 (ip), vehicle: distilled water + Tween-80 97 % of control | dose: 100.0 mg/kg/injection, schedule: Q01DX005 (ip), vehicle: distilled water + Tween-80 99 % of control | dose: 200.0 mg/kg/injection, schedule: Q01DX005 (ip), vehicle: distilled water + Tween-80 98 % of control

NC(=S)N/N=C/c1c(Cl)nc2n1CCS2
inactive: dose: 100.0 mg/kg/injection, schedule: Q01DX001 (ip), vehicle: Klucel (hydroxypropylcellulose) (HPC) 94 % of control | dose: 200.0 mg/kg/injection, schedule: Q01DX001 (ip), vehicle: Klucel (hydroxypropylcellulose) (HPC) 93 % of control | dose: 400.0 mg/kg/injection, schedule: Q01DX001 (ip), vehicle: Klucel (hydroxypropylcellulose) (HPC) 92 % of control

O=C(NCCN1CCNCC1)c1ccc(Cl)cc1
inactive: [1] 97 % of control | [2] 92 % of control | dose: 240.0 mg/kg/injection, schedule: Q01DX005 (ip), vehicle: saline with Tween-80 93 % of control

O=C1OCC/C1=C/O/C=C1\CCOC1=O
inactive: [1] 106 % of control | [2] 119 % of control

O=[Se]([O][Sn]([O][Se](=O)c1ccccc1)([O][Se](=O)c1ccccc1)[O][Se](=O)c1ccccc1)c1ccccc1 (stereo not given)
inactive: dose: 12.5 mg/kg/injection, schedule: Q01DX009 (ip), vehicle: saline with Tween-80 98 % of control | dose: 25.0 mg/kg/injection, schedule: Q01DX009 (ip), vehicle: saline with Tween-80 103 % of control | dose: 50.0 mg/kg/injection, schedule: Q01DX009 (ip), vehicle: saline with Tween-80 110 % of control and 118 % of control

CN1C2CCC1C(CO)C(O)C2 (stereo not given)
inactive: dose: 50.0 mg/kg/injection, schedule: Q01DX005 (ip), vehicle: saline 98 % of control | dose: 100.0 mg/kg/injection, schedule: Q01DX005 (ip), vehicle: saline 103 % of control | dose: 200.0 mg/kg/injection, schedule: Q01DX005 (ip), vehicle: saline 107 % of control

CC(=O)OC12CCCCC(CCCC1)O2
inactive: dose: 100.0 mg/kg/injection, schedule: Q04DX003 (ip), vehicle: Klucel (hydroxypropylcellulose) (HPC) 100 % of control | dose: 200.0 mg/kg/injection, schedule: Q04DX003 (ip), vehicle: Klucel (hydroxypropylcellulose) (HPC) 99 % of control | dose: 400.0 mg/kg/injection, schedule: Q04DX003 (ip), vehicle: Klucel (hydroxypropylcellulose) (HPC) 100 % of control

C[C@]12C=C[C@@]3(CC[C@@H]4[C@](C)(CO)[C@H](O)CC[C@@]4(C)[C@@H]3CC1)C2
inactive: dose: 3.5 mg/kg/injection, schedule: Q01DX005 (ip), vehicle: Klucel (hydroxypropylcellulose) (HPC) 89 % of control | dose: 7.0 mg/kg/injection, schedule: Q01DX005 (ip), vehicle: Klucel (hydroxypropylcellulose) (HPC) 100 % of control | dose: 14.0 mg/kg/injection, schedule: Q01DX005 (ip), vehicle: Klucel (hydroxypropylcellulose) (HPC) 92 % of control | dose: 28.0 mg/kg/injection, schedule: Q01DX005 (ip), vehicle: Klucel (hydroxypropylcellulose) (HPC) 96 % of control
